We go through 58 compounds from the METLIN SMRT retention time set (Domingo-Almenara et al. 2019).

Each structure is given as a SMILES string.

This data set is described as follows: gradient 5% acetonitrile 3 min, to 50% in 2 min, to 85% in 15 min, held 3 min, 100 µL/min. As to conditions: column: Zorbax Extend-C18 2.1 x 50 mm; eluents: water / acetonitrile, 0.1% formic acid. The essentials:
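Values are retention times taken from adduct peaks that software picked and an analyst inspected. The pure standards were run as mixtures of ~100 molecules on HPLC linked to a quadrupole time-of-flight mass spectrometer, in positive and negative ionization mode. A Zorbax Extend-C18 column (2.1 × 50 mm, 1.8 μm) was used at 100 μL/min with water and acetonitrile, each including 0.1% formic acid.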
`Cc1ccc(-c2cn3cccc(C)c3n2)cc1NS(=O)(=O)c1ccc(Cl)cc1` displayed an RP-LC retention time of 714 s.

Compound `COc1ccccc1CCN1CC(=O)N(c2cccc(C)c2)[C@@H]2CS(=O)(=O)C[C@@H]21` yielded an RP-LC retention time of 850 s.

Consider `Cc1ccc(Cn2nccc2NC(=O)c2cc(=O)c3ccccc3o2)cc1`, for which the RP-LC retention time was determined as 816 s.

`CN(C)C(=O)CN1CCN(c2cc(C(=O)O)c3cc(NC(=O)c4cccc(Cl)c4)ccc3n2)CC1` had an RP-LC retention time of 612 s.

Compound `Cn1c([N+](=O)[O-])cnc1N1CCN(c2nncs2)C1=O` had an RP-LC retention time of 689 s.

In turn, `CC1(C)C(=O)NCCN1C(=O)CN1C(=O)c2ccccc2C1=O` had an RP-LC retention time of 594 s.

Turning to `N#Cc1cccc(C(=O)NC2CCN(c3cc(-c4ccccc4)[nH]n3)C2)c1` (stereo not drawn), the RP-LC retention time amounted to 691 s.

`CCOCCCNC(=O)CCc1nnc2c3cc(-c4ccc(C)c(C)c4)nn3ccn12` registered an RP-LC retention time of 753 s.

Consider `COc1ccc(CNC(=O)C2(C)CCCN(S(=O)(=O)c3ccc(C)cc3)C2)cc1` (stereo not drawn), for which the RP-LC retention time was 946 s.

In turn, `CC(NC(=O)c1cc(-c2ccc(Cl)cc2)cn1C)c1cccnc1` (stereo not drawn) yielded an RP-LC retention time of 726 s.

The compound `Cc1cccc(C(=O)N2CCc3cc(CNC(=O)c4cc(-c5cccs5)[nH]n4)ccc32)c1` registered an RP-LC retention time of 895 s.

Regarding `CC(NC(=O)c1cnc(-c2ccccc2)nc1-c1ccncc1)c1ccc(F)cc1` (stereo not drawn), the RP-LC retention time was 868 s.

In turn, `O=C1CC(C(=O)N2CCN(Cc3ccccc3)CC2)CN1CCc1c[nH]c2ccc(F)cc12` (stereo not drawn) yielded an RP-LC retention time of 634 s.

For the compound `CCOC(=O)C1C(=O)C=C(c2cccc(NS(C)(=O)=O)c2)CC1c1ccccc1F` (stereo not drawn), the RP-LC retention time was determined as 840 s.

Consider `Cc1ccc(-c2cc3c(=O)n(Cc4noc(CN5CCCC(C)C5)n4)ccn3n2)cc1` (stereo not drawn), for which the RP-LC retention time was determined as 705 s.

`O=c1c2sccc2n(Cc2nc(-c3ccccc3)no2)c(=O)n1Cc1ccccc1`: the RP-LC retention time stood at 985 s.

With `Cc1ccsc1C(=O)N1CC[C@@H](n2c(=O)n(C)c3cccnc32)C1`, the RP-LC retention time was determined as 710 s.

Compound `CC1=C(c2ccc(C)c(C)c2)S(=O)(=O)N=C1N1CCC(C(=O)NCCN2CCCC2)CC1` returned an RP-LC retention time of 661 s.

`COc1ccc(CN2C=C(C(=O)OCc3noc(-c4ccc(C)c(C)c4)n3)C(C)=NS2(=O)=O)cc1` showed an RP-LC retention time of 1230 s.

Consider `Cc1ccc(NC(=O)c2cnc(-c3ccccc3)nc2-c2ccncc2)c(Br)c1`, for which the RP-LC retention time is 987 s.

`COc1ccc2[nH]cc(CCNC(=O)c3cc4n(n3)CCCN(Cc3ccc(Cl)cc3)C4=O)c2c1` came in with an RP-LC retention time of 693 s.

`CCCc1ccc(S(=O)(=O)N2CCC3(CC2)NCCCN=C3NC2CCCC2)cc1` gave an RP-LC retention time of 857 s.

In turn, `Cc1noc(C)c1-c1ccc(S(=O)(=O)NC2CCC(C)CC2)cc1` (stereo not drawn) came in with an RP-LC retention time of 1030 s.

In turn, `COCCC(=O)NCCC1CCN(C(=O)Nc2cc(F)cc(F)c2)CC1` yielded an RP-LC retention time of 695 s.

In the case of `Cc1cc(C)n(CCN(C(=O)c2ccc([N+](=O)[O-])s2)c2nc3ccccc3s2)n1`, the RP-LC retention time is 1020 s.

Take `COc1ccccc1N1CCN(S(=O)(=O)c2ccc3c(c2)CCCC(=O)N3)CC1`: the RP-LC retention time was found to be 809 s.

In turn, `CCOCCCNC(=O)C1CCN(c2nnc3cccc(C)n23)CC1` displayed an RP-LC retention time of 593 s.

The compound `CC(=O)O[C@@H]1CC[C@@]2(C)[C@H](C1)[C@H](OC(C)=O)C[C@@H]1[C@@H]2C[C@H]2[C@@H]3CN4C[C@H](C)CC[C@H]4[C@H](C)[C@H]3CC[C@@]12O` showed an RP-LC retention time of 716 s.

Consider `O=C(Nc1cccc(Cl)c1)Nc1cccc(-c2ccc3nncn3n2)c1`, for which the RP-LC retention time is 734 s.

Consider `CCc1cccc(NS(=O)(=O)c2c(C)sc(C)c2-c2cc(C)[nH]n2)c1`, for which the RP-LC retention time was determined as 1130 s.

Regarding `CS(=O)(=O)N(Cc1cccnc1)C1CN(C(=O)Nc2ccc3c(c2)OCCO3)C1`, the RP-LC retention time came out at 551 s.

Regarding `COc1ccccc1N1CCN(CCCCN2C(=O)CCC2=O)CC1`, the RP-LC retention time was 650 s.

Regarding `CCCC(=O)Nc1ccc(CCc2nc3ccc(C(=O)NCCC4=CCCCC4)cc3[nH]2)cc1`, the RP-LC retention time was found to be 734 s.

In turn, `O=C(NCc1ccccn1)c1c(OCC2CC2)cc(=O)n2c1CCCCC2` returned an RP-LC retention time of 586 s.

As for `CN1CCN(S(=O)(=O)c2ccc3nn(Cc4c(F)cccc4Cl)c(=O)n3c2)CC1`, the RP-LC retention time came to 642 s.

Compound `CCOc1ccccc1NC(=O)Cn1nc2n(c1=O)CCCCC2` yielded an RP-LC retention time of 766 s.

In the case of `CC1CCN(C(=O)C2CC(=O)N(CCc3c[nH]c4ccc(F)cc34)C2)CC1` (stereo not drawn), the RP-LC retention time was 797 s.

Compound `O=C(NC(C(=O)N1CCCc2ccccc21)c1ccccc1)c1cnccn1` (stereo not drawn) registered an RP-LC retention time of 932 s.

`Cc1ccc2c(Nc3ccc4c(c3)OCO4)c(C(=O)N3CCCC3)cnc2n1` gave an RP-LC retention time of 591 s.

Turning to `O=C(CSc1ncn[nH]1)Nc1ccc(Cl)cc1`, the RP-LC retention time was determined as 642 s.

Take `Cn1nccc1C(=O)Nc1ccc(Br)cc1`: the RP-LC retention time was 791 s.

In turn, `COc1ccccc1Oc1c(NS(=O)(=O)c2ccc(C)cn2)nc(-c2ccncc2)nc1OC` returned an RP-LC retention time of 870 s.

Compound `CCOc1cccc(CNc2c(-c3nc(C)no3)cnc3nc(C)ccc23)c1` showed an RP-LC retention time of 724 s.

Consider `NC(=O)COc1c(F)cc(SCCNS(=O)(=O)c2ccccc2)cc1F`, for which the RP-LC retention time was determined as 847 s.

Consider `CN(C)C[C@@H]1CN(Cc2ccccn2)C[C@H]1NS(=O)(=O)c1cccc(F)c1`, for which the RP-LC retention time stood at 553 s.

The compound `Cc1ccc(C)c(-n2ncc3c(N4CCN(C)CC4)ncnc32)c1` came in with an RP-LC retention time of 614 s.

For the compound `O=C(NCc1nnnn1C1CCCCC1)c1ccccc1C(F)(F)F`, the RP-LC retention time is 782 s.

In turn, `CCN1c2cc(Cl)ccc2C(=O)NC12CCN(C(=O)NCc1ccc(F)cc1)CC2` registered an RP-LC retention time of 840 s.

`CO/N=C1/C=C(C)C(=O)C(C)=C1C` registered an RP-LC retention time of 1040 s.

`Cc1cc(-c2nc(C3CC3)no2)c(C)n1CC(=O)Nc1ccc(Cl)cc1` came in with an RP-LC retention time of 1020 s.

In turn, `COc1ccc(-c2ncc3c(n2)CCN(S(=O)(=O)Cc2ccc(C)cc2)C3)cc1` returned an RP-LC retention time of 1050 s.

Take `Cc1ccc(-c2cn3c(CC(=O)NC4CCCCCC4)csc3n2)cc1C`: the RP-LC retention time was found to be 894 s.

As for `Cc1cc(NC(=O)CSc2nc3ccccc3o2)sn1`, the RP-LC retention time amounted to 726 s.

As to `COc1cc(NC(=O)Nc2nccn(-c3cccc(Cl)c3)c2=O)cc(OC)c1`, the RP-LC retention time came out at 978 s.

`CNC(=O)C1CCCN(c2nc3ncn(CC(=O)Nc4ccc5c(c4)OCO5)c(=O)c3s2)C1` (stereo not drawn) returned an RP-LC retention time of 1110 s.

Consider `c1ccc(-c2ccc(-c3nccc4ccccc34)[nH]2)cc1`, for which the RP-LC retention time is 806 s.

With `COc1ccc(NC(=O)N2C[C@@H](F)C[C@H]2C(=O)N2CCc3ccccc3C2)c(OC)c1`, the RP-LC retention time was 790 s.

Regarding `Cc1nnc(C2CCCCCN2S(=O)(=O)c2ccccc2F)o1` (stereo not drawn), the RP-LC retention time was 816 s.
